Results as given in US11098040B2, “Compounds and methods of use” (Ferro Therapeutics, Inc., priority 2018, dated 2021).
Where two headings read alike, the source gives them in different places.

Assays:
[1] = Whole blood stability, human; assay type: in vitro ADME
Excerpt: (§1) The results of the assay on stability in blood and IC50 values for pancreatic cancer cell line KP4 are given below in Table 24.

KP4 = assay: Cell viability assay (CellTiter Glo), pancreatic ductal adenocarcinoma KP4; assay type: cell-based, human
Method: (§2) Cell viability assay was performed to assess the potency of the compounds in human cancer cell lines KP4 (pancreatic ductal adenocarcinoma), MiaPaCa-2 (pancreatic carcinoma), AsPC-1 (pancreatic adenocarcinoma, ascites), 143B (osteosarcoma), and SJSA-1 (osteosarcoma). Selected compounds were also assayed in a human breast epithelial cell line MCF-10A, a nontumorigenic cell line as a control to assess differential activity. Cells at a density of 500-5,000 cells/well were seeded in 96-well plates and incubated at 37° C. overnight. A series of 9 different concentrations of compound stocks (500×) were created by 3-fold serial dilution in DMSO. These compounds were further diluted in culture media and then added to cells so that the final DMSO concentration was equal to 0.25% or less. After 96 hours of incubation, 50 μL of CellTiter Glo reagent (Promega) was added to each well and luminescence was measured after 10 minutes using EnVision (PerkinElmer). Compounds titrated from top concentration of up to 30 μM. The select compounds were tested initially from 30 μM as the top concentration in duplicates (range of 4.6 nM-30 μM). […] Luminescence from cells treated with DMSO alone was set as Max and % of inhibition was calculated as follows: Inhibition %=(Max-Sample value)/Max*100. Data was analyzed using XL-fit software (ID Business Solutions Ltd.). IC50, relative IC50, or % of top inhibition was calculated.
as §2, with “in” for “in human”, “line” for “lines”, “adenocarcinoma).” for “adenocarcinoma), MiaPaCa-2 (pancreatic carcinoma), AsPC-1 (pancreatic adenocarcinoma, ascites), 143B (osteosarcoma), and SJSA-1 (osteosarcoma). Selected compounds were also assayed in a human breast epithelial cell line MCF-10A, a nontumorigenic cell line as a control to assess differential activity.”, “1,000-10,000” for “500-5,000”, “All” for “Compounds titrated from top concentration of up to 30 μM. The select”
as §1

[2] = Whole blood stability, mouse; assay type: in vitro ADME
Excerpt: as §1

[3] = Homo sapiens, KP-4, 96 h, pancreatic cancer cell line KP4, 96 hours, CellTiter Glo, read-out: IC50 μM KP4
[4] = Homo sapiens, KP-4, Cell Line KP4, read-out: IC50

| Compound | Whole Blood Stability % Remaining at 37° C. Human ([1]; 0 min) | Whole Blood Stability % Remaining at 37° C. Human ([1]; 30 min) | Whole Blood Stability % Remaining at 37° C. Human ([1]; 60 min) | IC50 (KP4; [3]) | Whole Blood Stability % Remaining at 37° C. Mouse ([2]; 0 min) | Whole Blood Stability % Remaining at 37° C. Mouse ([2]; 30 min) | Whole Blood Stability % Remaining at 37° C. Mouse ([2]; 60 min) | IC50 (KP4; pancreatic cancer cell line KP4, 96 hours, CellTiter Glo, read-out: IC50 μM KP4) | IC50 (KP4; [4]) |
| --- | --- | --- | --- | --- | --- | --- | --- | --- | --- |
| COCCN(C(=O)c1ccc([C@H]2c3[nH]c4ccccc4c3C[C@H](C(=O)N(C)C)N2C(=O)CCl)cc1)C(C)(C)C [Compound 52] | 100.0% | 51.8% | 59.4% | 0.01 to 0.1 µM | 100.0% | 79.9% | 52.0% | – | – |
| (1S,3R)-RSL3-alkyne [Compound BX, reference compound] | 100.0% | 70.1% | 51.1% | – | 100.0% | 0.0% | 0.0% | < 0.01 µM | – |
| COC(=O)c1ccc([C@@H]2c3[nH]c4ccc(Cl)cc4c3C[C@H](C(=O)OC)N2C(=O)CCl)cc1 [Compound 94] | 100.0% | 50.3% | 27.1% | < 0.01 µM | 100.0% | 0.0% | 0.0% | – | – |
| C[C@H]1Cc2c([nH]c3ccccc23)[C@H](c2ccc([Si](C)(C)C)cc2)N1C(=O)CCl [Compound 106] | – | – | – | < 0.01 µM | – | – | – | – | – |
| CNS(=O)(=O)c1ccc([C@H]2c3[nH]c4ccccc4c3C[C@H](C(=O)OC)N2C(=O)CCl)cc1 [Compound 22] | 100.0% | 58.8% | 24.9% | < 0.01 µM | 100.0% | 47.4% | 27.6% | – | – |
| COC[C@H]1Cc2c([nH]c3ccccc23)[C@@H](c2ccc(C(=O)OC(C)(C)C)cc2)N1C(=O)CCl [Compound 64] | 100.0% | 44.3% | 14.7% | 0.1 to 0.5 µM | 100.0% | 0.0% | 0.0% | – | – |
| COC(=O)c1ccc([C@H]2c3[nH]c4ccc(OC)cc4c3C[C@H](C)N2C(=O)CCl)cc1 [Compound 113] | 100.0% | 85.1% | 92.7% | < 0.01 µM | 100.0% | 89.5% | 2.4% | – | – |
| CN(C)C(=O)[C@H]1Cc2c([nH]c3ccccc23)[C@H](c2ccncc2)N1C(=O)CCl [Compound 50] | – | – | – | 0.1 to 0.5 µM | – | – | – | – | – |
| COC(=O)[C@H]1Cc2c([nH]c3ccccc23)[C@H](c2ccc(S(=O)(=O)N3CC(O)C3)cc2)N1C(=O)CCl [Compound 37] | 100.0% | 37.8% | 17.9% | 0.01 to 0.1 µM | 100.0% | 25.4% | 9.8% | – | – |
| C[C@H]1Cc2c([nH]c3ccccc23)[C@H](c2ccc(C3CCOCC3)cc2)N1C(=O)CCl [Compound 112] | 100.0% | 58.3% | 44.6% | < 0.01 µM | 100.0% | 68.7% | 69.3% | – | – |
| COC(=O)[C@H]1Cc2c([nH]c3ccccc23)[C@H](c2ccc(S(=O)(=O)NCC3CC3)cc2)N1C(=O)CCl [Compound 82] | 100.0% | 47.6% | 34.5% | < 0.01 µM | 100.0% | 43.1% | 21.7% | – | – |
| [2H]C([2H])(Cl)C(=O)N1[C@@H](c2ccc(C(=O)OC)cc2)c2[nH]c3ccccc3c2C[C@@H]1C(=O)OC [Compound 90] | – | – | – | < 0.01 µM | – | – | – | – | – |
| COC(=O)[C@H]1Cc2c([nH]c3ccccc23)[C@H](c2ccc(C(=O)N[C@]34CC5C[C@H](C[C@H](C5)C3)C4)cc2)N1C(=O)CCl [Compound 28, Methyl-(1S,3R)-1-(4-(((3R,5R,7R)-adamantan-1-yl)carbamoyl)phenyl)-2-(2-chloroacetyl)-2,3,4,9-tetrahydro-1H-pyrido[3,4-b]indole-3-carboxylate] | 100.0% | 73.4% | 51.6% | < 0.01 µM | 100.0% | 78.3% | 68.9% | – | – |
| COC(=O)c1ccc([C@@H]2c3[nH]c4ccccc4c3C[C@H](C)N2C(=O)CCl)cc1 [Example 77a] | 100.0% | 47.5% | 14.8% | 0.5 to 1 µM | 100.0% | 0.0% | 0.0% | – | – |
| C[C@H]1Cc2c([nH]c3ccccc23)[C@H](c2ccc(NCC3CC3)cc2)N1C(=O)CCl [Compound 116] | 100.0% | 79.2% | 62.0% | 0.1 to 0.5 µM | 100.0% | 82.6% | 67.1% | – | – |
| C[C@H]1Cc2c([nH]c3ccccc23)[C@@H](c2ccc([Si](C)(C)C)cc2)N1C(=O)CCl [Compound 107] | – | – | – | > 1 µM | – | – | – | – | – |
| C[C@H]1Cc2c([nH]c3ccccc23)[C@H](c2ccc(C3CC3)cc2)N1C(=O)CCl [Compound 108] | – | – | – | < 0.01 µM | – | – | – | – | – |
| COC(=O)c1ccc([C@H]2c3[nH]c4ccc(OC)cc4c3C[C@H](C(=O)OC)N2C(=O)CCl)cc1 [Compound 277] | – | – | – | – | – | – | – | – | 0.036 µM |
| [2H]C([2H])(Cl)C(=O)N1[C@@H](c2ccc(S(=O)(=O)NC34CC5CC(CC(C5)C3)C4)cc2)c2[nH]c3ccccc3c2C[C@@H]1C(=O)OC [Compound 251] | – | – | – | – | – | – | – | – | 0.0065 µM |
| C[C@H]1Cc2c([nH]c3ccccc23)[C@@H](c2ccc(N3CCN(C)CC3)cc2)N1C(=O)OCl [Compound 105] | – | – | – | 0.5 to 1 µM | – | – | – | – | – |
| CN(C)C(=O)[C@H]1Cc2c([nH]c3ccccc23)[C@@H](c2ccc(C(=O)OC(C)(C)C)cc2)N1C(=O)CCl [Compound 21a] | – | – | – | 0.1 to 0.5 µM | – | – | – | – | – |
